Here are results for 45 molecules from patent US9422240B2, “Partially saturated nitrogen-containing heterocyclic compound” (TAISHO PHARMACEUTICAL CO., LTD, priority 2012, dated 2016).

By inhibition is commonly meant the change of the read-out against control, counted positive when it falls.

The target in experiment [1] is T1, human PHD2 (Homo sapiens (Human), UniProt Q9GZT9). Put plainly: Test 1: human PHD2 inhibitory activity, [14C]-2-oxoglutarate to [14C]-succinic acid radiometric assay with HIF-1α peptide. The experiment is classed as biochemical. As to conditions: test compound's concentration 1 μM; Test 1, [14C]-2-oxoglutarate radiometric assay; read-out: Percent inhibition (% at 1 μM). As to the method: (1) Expression and Preparation of Human PHD2
T1 sequence (Q9GZT9 whole entry): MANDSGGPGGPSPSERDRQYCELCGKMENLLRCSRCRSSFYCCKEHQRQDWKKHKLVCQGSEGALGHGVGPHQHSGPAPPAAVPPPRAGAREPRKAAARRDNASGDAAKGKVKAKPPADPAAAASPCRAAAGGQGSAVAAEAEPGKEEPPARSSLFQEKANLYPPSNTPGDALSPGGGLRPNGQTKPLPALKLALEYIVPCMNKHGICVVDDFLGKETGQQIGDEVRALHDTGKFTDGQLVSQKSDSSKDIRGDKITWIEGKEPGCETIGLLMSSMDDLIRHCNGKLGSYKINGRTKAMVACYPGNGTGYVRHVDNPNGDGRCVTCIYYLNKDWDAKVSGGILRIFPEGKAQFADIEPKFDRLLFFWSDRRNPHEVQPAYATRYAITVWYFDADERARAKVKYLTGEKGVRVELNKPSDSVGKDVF
Human PHD2 was expressed in insect cells (HighFive cells). A registered sequence of human PHD2 (NM_022051) was introduced into the pFastBacl vector (Invitrogen), and the sequence was verified. The vector was introduced into Sf9 insect cells (Invitrogen) to acquire human PHD2 baculovirus. HighFive insect cells (Invitrogen) were infected with this recombinant virus and cultured at 27° C. for 72 hours; thereafter, a cell lysis solution containing various protease inhibitors was added and the cells were disrupted to form a suspension. The suspension of disrupted cells was centrifuged at 4° C. and 100,000×g for 30 minutes and the supernatant was recovered as a cell lysate.
(2) Measurement of Human PHD2 Inhibitory Activity
The activity of human PHD2 enzyme was measured with a substrate which is a 19-residue partial peptide based on the sequence of HIF-1α. Specifically, the conversion of 2-oxoglutarate to succinic acid which would occur simultaneously with the hydroxylation of a proline residue in the peptide with the PHD2 enzyme was utilized. To be more specific, [^14C]-2-oxogiutarate was added to the reaction system to initiate an enzymatic reaction and the [^14C]-2-oxoglutarate remaining after the reaction was bound to 2,4-dinitrophenylhydrazine (DNPH), with the resulting precipitate being removed by passage through a filter. Subsequently, radiation counting was conducted on the resulting [^14C]-succinic acid.
A test compound, HIF-1αpeptide and [^14C]-2-oxoglutarate were preliminarily added onto 96-well plates and reaction was initiated by adding a human PHD2 enzyme solution (4 μg/well). After 15-min incubation at 37° C., a DNPH-containing quench solution was added and the mixture was allowed to stand at room temperature for 30 minutes. Thereafter, an excess of non-radiolabelled 2-oxoglutarate was added and the mixture was allowed to stand at room temperature for 60 minutes. The resulting precipitate was removed by passage through a filter and the radiation count on the [^14C]-succinic acid was quantified (with MicroBeta). Radiation counting was conducted for each well and the human PHD2 inhibitory activity of each test compound was calculated on the basis of the values for the substrate-free group and the test compound-free group.

In experiment [2] the target is T1, human PHD2. Briefly: Test 2: human PHD2 inhibitory activity, fluorescence polarization assay of HIF-1α peptide proline hydroxylation. The experiment is classed as biochemical. As to conditions: test compound's concentration 1 μM; Test 2, fluorescence polarization assay; read-out: Percent inhibition (% at 1 μM). The method in brief: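 A 19-mer HIF-1α peptide served as substrate, with the reaction started by 40 ng/well human PHD2 (cell lysate of NM_022051-transfected cells) and run 20 min at 30° C. before EDTA stop. Hydroxylated product bound anti-HIF-OH antibody, read by fluorescence polarization versus no-compound control.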

For `Cc1ccc(CN2CC3(CCCCC3)C(O)=C(C(=O)NCC(=O)O)C2=O)cc1` [Ex. 1-86], the inhibition at 1 µM in experiment [1] amounted to 48%; in experiment [2], 71%.

Turning to `CC(C)(C)c1ccc(-c2ccc(CN3C(=O)C(C(=O)NCC(=O)O)=C(O)CC34CCOCC4)cc2)cc1` [Ex. 1-87], the inhibition at 1 µM is 46% in experiment [1] and 86% in experiment [2].

With `Cc1ccc(CN2C(=O)C(C(=O)NCC(=O)O)=C(O)CC2(C)C)cc1` [Ex. 1-88], the results for the inhibition at 1 µM in experiment [1] and in experiment [2] were 44% and 55%, respectively.

For the molecule `Cc1ccc(CN2CC3(CCOCC3)C(O)=C(C(=O)NCC(=O)O)C2=O)cc1` [Ex. 1-89], the inhibition at 1 µM amounted to 69% in experiment [1] and 72% in experiment [2].

For the molecule `Cc1ccc(CN2CC3(CCC3)C(O)=C(C(=O)NCC(=O)O)C2=O)cc1` [Ex. 1-90], the inhibition at 1 µM in experiment [1] was found to be 58%; in experiment [2], 63%.

Consider `O=C(O)CNC(=O)C1=C(O)C2(CCCCC2)CN(Cc2cnc(-c3ccccc3)s2)C1=O` [Ex. 1-91], for which the inhibition at 1 µM in experiment [1] turned out to be 85%; in experiment [2], 94%.

In the case of `Cc1ccc(CN2CC(C)C(O)=C(C(=O)NCC(=O)O)C2=O)cc1` (stereo not drawn) [Ex. 1-92], the inhibition at 1 µM was 69% in experiment [1] and 66% in experiment [2].

Turning to `CC1CN(Cc2ccc(-c3ccccn3)cc2)C(=O)C(C(=O)NCC(=O)O)=C1O` (stereo not drawn) [Ex. 1-93], the inhibition at 1 µM came to 80% in experiment [1] and 81% in experiment [2].

Turning to `CC1CC(O)=C(C(=O)NCC(=O)O)C(=O)N1Cc1cnc(-c2ccccc2)s1` (stereo not drawn) [Ex. 1-94], the inhibition at 1 µM in experiment [1] is 84%; in experiment [2], 92%.

On to `O=C(O)CNC(=O)C1=C(O)C2(CCC2)CN(Cc2cnc(-c3ccccc3)s2)C1=O` [Ex. 1-95], for which the values for the inhibition at 1 µM in experiment [1] and in experiment [2] were 85% and 91%, respectively.

Regarding `CC1(C)CC(O)=C(C(=O)NCC(=O)O)C(=O)N1Cc1cnc(-c2ccccc2)s1` [Ex. 1-96], the results for the inhibition at 1 µM in experiment [1] and in experiment [2] were 82% and 86%, respectively.

Turning to `O=C(O)CNC(=O)C1=C(O)C2(CCOCC2)CN(Cc2cnc(-c3ccccc3)s2)C1=O` [Ex. 1-97], the inhibition at 1 µM in experiment [1] came to 89%; in experiment [2] it was 91%.

As to `O=C(O)CNC(=O)C1=C(O)CC2(CCOCC2)N(Cc2cnc(-c3ccccc3)s2)C1=O` [Ex. 1-98], the inhibition at 1 µM in experiment [1] and in experiment [2] was 88% throughout.

`O=C(O)CNC(=O)C1=C(O)CC2(CCOCC2)N(CC2CCC(c3ccccc3)CC2)C1=O` (stereo not drawn) [Ex. 1-99]: the inhibition at 1 µM in experiment [1] amounted to 71%; in experiment [2], 92%.

`CC1CC(O)=C(C(=O)NCC(=O)O)C(=O)N1Cc1ccc(-c2ccc(C(F)(F)F)cc2)cc1` (stereo not drawn) [Ex. 1-100]: the inhibition at 1 µM stood at 64% in experiment [1] and 84% in experiment [2].

`O=C(O)CNC(=O)C1=C(O)C2(CCCCC2)CN(Cc2ccc(-c3ccccn3)cc2)C1=O` [Ex. 1-101]: the inhibition at 1 µM was determined as 60% in experiment [1] and 86% in experiment [2].

For `O=C(O)CNC(=O)C1=C(O)C2(CCC2)CN(Cc2ccc(-c3ccccn3)cc2)C1=O` [Ex. 1-102], the figures for the inhibition at 1 µM in experiment [1] and in experiment [2] were 67% and 83%, respectively.

Consider `CC1CN(Cc2ccc(C(F)(F)F)cc2)C(=O)C(C(=O)NCC(=O)O)=C1O` (stereo not drawn) [Ex. 1-103], for which the inhibition at 1 µM in experiment [1] was determined as 76%; in experiment [2], 82%.

`CC1CN(Cc2cnc(-c3ccccc3)s2)C(=O)C(C(=O)NCC(=O)O)=C1O` (stereo not drawn) [Ex. 1-104]: the inhibition at 1 µM in experiment [1] is 87%; in experiment [2] it was 94%.

For `O=C(O)CNC(=O)C1=C(O)CC2(CCOCC2)N(Cc2ccc(-c3ccccn3)cc2)C1=O` [Ex. 1-105], the figures for the inhibition at 1 µM in experiment [1] and in experiment [2] were 78% and 83%, respectively.

As to `O=C(O)CNC(=O)C1=C(O)CC2(CCOCC2)N(Cc2ccc(C(F)(F)F)cc2)C1=O` [Ex. 1-106], the inhibition at 1 µM was determined as 66% in experiment [1] and 72% in experiment [2].

Consider `CC1CN(CC2CCC(c3ccccc3)CC2)C(=O)C(C(=O)NCC(=O)O)=C1O` (stereo not drawn) [Ex. 1-107], for which the inhibition at 1 µM worked out at 67% in experiment [1] and 90% in experiment [2].

With `CC1CN(Cc2ccc(-c3ccc(C(F)(F)F)cc3)cc2)C(=O)C(C(=O)NCC(=O)O)=C1O` (stereo not drawn) [Ex. 1-108], the inhibition at 1 µM was determined as 60% in experiment [1] and 87% in experiment [2].

As for `CC1(C)CC(O)=C(C(=O)NCC(=O)O)C(=O)N1Cc1ccc(-c2ccccn2)cc1` [Ex. 1-109], the inhibition at 1 µM in experiment [1] is 70%; in experiment [2], 77%.

For `O=C(O)CNC(=O)C1=C(O)C2(CCOCC2)CN(Cc2ccc(-c3ccccn3)cc2)C1=O` [Ex. 1-110], the inhibition at 1 µM in experiment [1] was determined as 82%; in experiment [2], 84%.

As for `O=C(O)CNC(=O)C1=C(O)CC2(CCCCC2)N(Cc2ccc(-c3ccccn3)cc2)C1=O` [Ex. 1-111], the inhibition at 1 µM came to 68% in experiment [1] and 80% in experiment [2].

In the case of `O=C(O)CNC(=O)C1=C(O)CC2(CCCCC2)N(Cc2cnc(-c3ccccc3)s2)C1=O` [Ex. 1-112], the figures for the inhibition at 1 µM in experiment [1] and in experiment [2] were 68% and 90%, respectively.

Turning to `O=C(O)CNC(=O)C1=C(O)CCN(Cc2ccc(C(F)(F)F)c(F)c2)C1=O` [Ex. 1-113], the values for the inhibition at 1 µM in experiment [1] and in experiment [2] were 79% and 84%, respectively.

Take `O=C(O)CNC(=O)C1=C(O)C2(CCC2)CN(CC2CCC(c3ccccc3)CC2)C1=O` (stereo not drawn) [Ex. 1-114]: the inhibition at 1 µM in experiment [1] amounted to 36%; in experiment [2], 83%.

Turning to `CC1(C)CC(O)=C(C(=O)NCC(=O)O)C(=O)N1CC1CCC(c2ccccc2)CC1` (stereo not drawn) [Ex. 1-115], the figures for the inhibition at 1 µM in experiment [1] and in experiment [2] were 49% and 83%, respectively.

In the case of `O=C(O)CNC(=O)C1=C(O)C2(CCOCC2)CN(CC2CCC(c3ccccc3)CC2)C1=O` (stereo not drawn) [Ex. 1-117], the inhibition at 1 µM was 83% in experiment [1] and 92% in experiment [2].

Turning to `CC1(C)CC(O)=C(C(=O)NCC(=O)O)C(=O)N1Cc1ccc(-c2ccc(C(F)(F)F)cc2)cc1` [Ex. 1-118], the inhibition at 1 µM in experiment [1] worked out at 77%; in experiment [2], 87%.

For `O=C(O)CNC(=O)C1=C(O)C2(CCOCC2)CN(Cc2ccc(-c3ccc(C(F)(F)F)cc3)cc2)C1=O` [Ex. 1-119], the results for the inhibition at 1 µM in experiment [1] and in experiment [2] were 85% and 84%, respectively.

On to `O=C(O)CNC(=O)C1=C(O)CCN(Cc2ccc(C(F)(F)F)c(C(F)(F)F)c2)C1=O` [Ex. 1-120], for which the figures for the inhibition at 1 µM in experiment [1] and in experiment [2] were 69% and 82%, respectively.

For `Cc1ccc(CN2C(=O)C(C(=O)NCC(=O)O)=C(O)CC23CCC3)cc1` [Ex. 1-121], the inhibition at 1 µM in experiment [1] stood at 66%; in experiment [2], 71%.

As to `O=C(O)CNC(=O)C1=C(O)CC2(CCC2)N(Cc2ccc(C(F)(F)F)cc2)C1=O` [Ex. 1-122], the inhibition at 1 µM came to 65% in experiment [1] and 76% in experiment [2].

Take `O=C(O)CNC(=O)C1=C(O)CC2(COC2)N(Cc2cnc(-c3ccccc3)s2)C1=O` [Ex. 1-123]: the figures for the inhibition at 1 µM in experiment [1] and in experiment [2] were 90% and 93%, respectively.

Take `O=C(O)CNC(=O)C1=C(O)CC2(COC2)N(Cc2ccc(C(F)(F)F)cc2)C1=O` [Ex. 1-124]: the values for the inhibition at 1 µM in experiment [1] and in experiment [2] were 72% and 79%, respectively.

For the molecule `O=C(O)CNC(=O)C1=C(O)CCN(Cc2ccc(-c3ccccc3)c(F)c2)C1=O` [Ex. 1-125], the results for the inhibition at 1 µM in experiment [1] and in experiment [2] were 98% and 97%, respectively.

For the molecule `O=C(O)CNC(=O)C1=C(O)CCN(Cc2ccc(-c3ccc(F)cc3)cc2F)C1=O` [Ex. 1-126], the inhibition at 1 µM in experiment [1] was 97%; in experiment [2], 98%.

Consider `O=C(O)CNC(=O)C1=C(O)CCN(Cc2ccc(-c3ccccc3)cc2F)C1=O` [Ex. 1-127], for which the inhibition at 1 µM in experiment [1] is 92%; in experiment [2] it was 95%.

In the case of `O=C(O)CNC(=O)C1=C(O)CCN(Cc2ccc(C(F)(F)F)c(Cl)c2)C1=O` [Ex. 1-128], the inhibition at 1 µM was 88% in experiment [1] and 84% in experiment [2].

Take `Cc1ccc(CN2CCC(O)=C(C(=O)NCC(=O)O)C2=O)cc1C(F)(F)F` [Ex. 1-129]: the inhibition at 1 µM is 71% in experiment [1] and 80% in experiment [2].

As for `O=C(O)CNC(=O)C1=C(O)CC2(CCC2)N(Cc2ccc(-c3ccccn3)cc2)C1=O` [Ex. 1-130], the results for the inhibition at 1 µM in experiment [1] and in experiment [2] were 89% and 90%, respectively.

As for `O=C(O)CNC(=O)C1=C(O)CC2(CCC2)N(Cc2cnc(-c3ccccc3)s2)C1=O` [Ex. 1-131], the inhibition at 1 µM in experiment [1] was 93%; in experiment [2], 96%.
